From patent US9044452B2, “Use of resiniferatoxin (RTX) for producing an agent for treating joint pains and method for applying said agent” (MESTEX AG, priority 2004, dated 2015)

Legend:
[1] = tested on: shoulder joint; assay: Injection into shoulder joint of patient with painful capsulitis of joints (frozen shoulder); format: in vivo, human; details: for joint mobility lost due to capsulitis: with physiotherapy
Protocol: The shoulder joint of a patient with painful capsulitis of joints (frozen shoulder) was injected with 9 mL of a 100 nmolar (approximately 0.001 mg) solution of resiniferatoxin in physiological salt solution. Once again, it was possible to check the distribution of the substance by adding the appropriate contrasting agent and employing an imaging procedure. Optionally, a substance with antiphlogistic activity was admixed. […] For this application, only a temporary analgesia (2-3 weeks) is desired. For this reason, the concentration of the neurotoxic substances, if anything, was kept low.
The shoulder joint of a patient with painful capsulitis of joints (frozen shoulder) was injected with 3 mL of a 500 nmolar (approximately 0.001 mg) solution of resiniferatoxin in physiological salt solution.

[2] = tested on: affected joint; assay: Continuous infusion of resiniferatoxin solution into the affected joint via infusion catheter; format: in vivo, human; details: Example 4: 100 nmolar
Protocol: The therapist placed a thin infusion catheter, similar to an epidural catheter, into the affected joint and, with a perfuser, injected a solution of […] of 100 nmolar of resiniferatoxin into the affected joint at a rate of 1-10 mL/h for 12 hours. Optionally, they also placed a drainage catheter with an optionally defined drainage resistance (such as 20 mm Hg), in order to achieve a liquid turnover. With this method, the therapist achieved a uniform infiltration of the painful joint, without large concentration peaks. Moreover, it was possible to define the period of action better.
The patient noted a clear alleviation of their symptoms already 12 hours after the intervention. This alleviation lasted for more than 1 year.

[3] = tested on: chronically inflamed bursa (Bursa trochenterica); assay: Injection into chronically inflamed bursa (Bursa trochenterica); format: in vivo, human
Protocol: The therapist injected 5 mL of a solution of a 500 nmolar (approximately 0.001 mg) solution of resiniferatoxin, buffered to a pH of 8.5 with a buffer, together with physiological salt solution as solvent, into a chronically inflamed bursa (Bursa trochenterica) over the greater trochanter of the hip. Within 60 minutes, the symptoms of the patient disappeared and the patient remained asymptomatic at this place for several years.
The therapist injected 50 mL of a 100 nmolar (approximately 0.001 mg) solution of resiniferatoxin in glycerin or Ringer lactate as solvent. Within 60 minutes, the symptoms of the patient disappeared and the patient remained asymptomatic at this place for several years.

[4] = Local application of RTX without local anesthetic, compared with capsaicin or with combination with local anesthetic; format: in vivo
Source text: Moreover, it is free of inflammation and pain. In particular, this preparation may be used without using ethanol, which otherwise is always necessary for the known intravesical administration. It is a further surprising advantage of the use without local or general anesthesia that, due to the injection, a warm, pleasant sensation sets in, which decisively supports combating pain. In this way, an amelioration of pain is achieved, which surpasses that of a combination with local anesthetics. This may also be explained by the antagonistic effect, which the local anesthetics have for vanilloid receptor agonists since they partially block the desired neurotoxic effect of vanilloids.

[5] = tested on: postoperative pain; assay: Injection of resiniferatoxin after knee or hip joint prosthesis implantation (postoperative pain); format: in vivo, human
Protocol: After a knee joint prosthesis had been implanted, the therapist injected 50 mL of a solution of 100 nmolar (approximately 0.001 mg) solution of resiniferatoxin into the joint capsule, which had been closed off once again.
After a hip joint prosthesis had been implanted, the therapist injected 50 mL of a solution of 100 nmolar (approximately 0.001 mg) solution of resiniferatoxin into the periprosthetic region without a capsule.

[6] = tested on: knee joint; assay: Injection of resiniferatoxin solution into the intracapsular space of a patient's knee joint; format: in vivo, human
Protocol: Under the optionally simultaneous (image converter, CT, sonography, MRI, etc.) or subsequent (x-ray, CT, MRI, sonography, arthroscopy, etc.) imaging control, the therapist brought an injection needle into the joint space of a knee joint and injected 9 mL of a 500 nmolar solution (approximately 0.003 mg) of resiniferatoxin into the intracapsular space. The patient noted a clear alleviation of their symptoms already 14 hours after the intervention. This alleviation lasted for more than 6 months.
Under the optionally simultaneous (image converter, CT, sonography, MRI, arthroscopy, etc.) or subsequent (x-ray, CT, MRI, sonography, etc.) imaging control, the therapist brought an injection needle into the joint space of a knee joint and injected […] of a 500 nmolar solution (approximately 0.006 mg) of resiniferatoxin into the intracapsular space. The patient noted a clear alleviation of their symptoms already a few days after the intervention. This alleviation lasted for more than 6 months.
The injected solution corresponded to that of Example 1 with the difference that, for the imaging method to be used, 5 mL of a visible contrasting agent (Iopamidol) was added at a concentration of 50 g/100 mL. After the injection, this contrasting agent spread out within the joint capsule and documented the position of the injection needle and the distribution of the RTX within the joint capsule. The injected solution, containing RTX, was drawn off again directly after the injection. It could, however, also be drawn off after a defined, substance-dependent time of action or not be drawn off at all. The patient noted a clear alleviation of their symptoms already 15 hours after the intervention. This alleviation lasted for more than 8 months.
Under the optionally simultaneous (image converter, CT, sonography, MRI, etc.) or subsequent (x-ray, CT, MRI, sonography, arthroscopy, etc.) imaging control, the therapist brought an injection needle into the joint space of a knee joint and injected 9 mL of a 500 nM (approx. 0.003 mg) solution of resiniferatoxin, buffered with a buffer to a pH of 8.5, together physiological salt solution into the intracapsular space. The patient noted a clear alleviation of their symptoms already a few minutes after the intervention. This alleviation lasted for more than 6 months.
Under the optionally simultaneous (image converter, CT, sonography, MRI, etc.) or subsequent (x-ray, CT, MRI, sonography, arthroscopy, etc.) imaging control, the therapist, brought an injection needle into the joint space of a knee joint and injected 9 mL of a 500 nmolar solution (approximately 0.003 mg) of resiniferatoxin, buffered to a pH of 6.5 with a buffer, together with a physiological salt solution into the intracapsular space.
Under the optionally simultaneous (image converter, CT, sonography, MRI, etc.) or subsequent (x-ray, CT, MRI, sonography, arthroscopy, etc.) imaging control, the therapist, brought an injection needle into the joint space of a knee joint and injected 9 mL of a 500 nmolar solution (approximately 0.003 mg) of resiniferatoxin, in a physiological Ringer solution with 10 mmolar Ca2+ into the intracapsular space.

[7] = tested on: painful, septic loosening of a total hip endoprosthesis; assay: Injection into (neo)-capsule about the prosthesis in painful, septic loosening of a total hip endoprosthesis; format: in vivo, human
Protocol: A solution of 5 μmolar (approximately 0.03 mg) solution of resiniferatoxin was injected into the (neo)-capsule about the prosthesis of a patient with a painful, septic loosening of a total hip endoprosthesis. […] Optionally, this treatment may be supported with systemically administered antibiotics (such as 450 mg of Rifampicin, 750 mg of ciproflaxacin).

[8] = Example 11: 9 mL of 100 nmolar solution in physiological salt solution, shoulder joint
[9] = Example 12: 3 mL of 500 nmolar solution in physiological salt solution, shoulder joint
[10] = 1-10 mL/h for 12 hours via catheter
[11] = Example 13: 5 mL of 500 nmolar solution buffered to pH 8.5, physiological salt solution, bursa over greater trochanter
[12] = Example 14: 50 mL of 100 nmolar solution in glycerin or Ringer lactate
[13] = Example 1: 9 mL of 500 nmolar solution, knee joint, intracapsular
[14] = Example 2: 20 mL of 500 nmolar solution, knee joint, intracapsular
[15] = Example 3: solution of Example 1 plus 5 mL Iopamidol 50 g/100 mL, drawn off directly after injection
[16] = Example 8: 9 mL of 500 nM solution buffered to pH 8.5, physiological salt solution, knee joint
[17] = Example 9: 9 mL of 500 nmolar solution buffered to pH 6.5, physiological salt solution, knee joint
[18] = Example 10: 9 mL of 500 nmolar solution in Ringer solution with 10 mmolar Ca2+, knee joint
[19] = Example 7: 5 μmolar solution into (neo)-capsule about the prosthesis

With `C=C(C)[C@]12C[C@@H](C)[C@@]34O[C@](Cc5ccccc5)(O[C@@H]1[C@@H]3C=C(COC(=O)Cc1ccc(O)c(OC)c1)C[C@]1(O)C(=O)C(C)=C[C@@H]41)O2` [resiniferatoxin] the pain after injection [1, 8] was “alleviated permanently”, the “time to alleviation of pain after the injection” value [1, 8] was “A few minutes” and the “joint mobility lost due to capsulitis” value ([1]; Example 11: 9 mL of 100 nmolar solution) was “able to regain the mobility”. For the same molecule, the pain after injection [1, 9] was “abated permanently”, the “time to abatement of pain after the injection” value [1, 9] was “A few minutes” and the “joint mobility lost due to capsulitis” value ([1]; Example 12: 3 mL of 500 nmolar solution) was “regained the mobility lost due to capsulitis”. For the same molecule, the duration of alleviation [2, 10] was “more than 1 year”, the “time to clear alleviation of symptoms after the intervention” value (from here on “time to clear alleviation of symptoms”) [2, 10] was 12 h and the “inflamed tissue at subsequent arthroscopies” value ([2]; 1-10 mL/h for 12 hours, arthroscopies after 1, 2, 7, 14 and 28 days) was “only a very little inflamed tissue was present”. For the same molecule, the “duration patient remained asymptomatic” value [3, 11] was “several years”, the “time to disappearance of symptoms” value [3, 11] was ≤ 60 min and the “duration patient remained asymptomatic” value [3, 12] was “several years”. For the same molecule, the “time to disappearance of symptoms” value [3, 12] was ≤ 60 min, the “local tolerability (burning, inflammation of tissue)” value ([4]; applied locally, without a local anesthetic) was “no burning and also no inflammation of tissue” and the “effectiveness of RTX by itself versus injection together with a local anesthetic” value ([4]; local intraarticular injection at a very low concentration) was “more effective than an injection together with a local anesthetic”. For the same molecule, the postoperative pain ([5]; Example 5: 50 mL of 100 nmolar solution into closed joint capsule after knee joint prosthesis) was “possible to minimize postoperative pain”, the postoperative pain ([5]; Example 6: 50 mL of 100 nmolar solution into periprosthetic region without capsule after hip joint prosthesis) was “possible to minimize postoperative pain” and the duration of alleviation [6, 13] was “more than 6 months”. For the same molecule, the “time to clear alleviation of symptoms” value [6, 13] was 14 h, the duration of alleviation [6, 14] was “more than 6 months” and the “time to clear alleviation of symptoms” value [6, 14] was “a few days”. For the same molecule, the duration of alleviation [6, 15] was “more than 8 months”, the “time to clear alleviation of symptoms” value [6, 15] was 15 h and the duration of alleviation [6, 16] was “more than 6 months”. The “time to clear alleviation of symptoms” value [6, 16] was “a few minutes”, the duration of alleviation [6, 17] was “more than 6 months” and the “time to clear alleviation of symptoms” value [6, 17] was “Within minutes”. For the same molecule, the duration of alleviation [6, 18] was “more than 6 months”, the “time to clear alleviation of symptoms” value [6, 18] was “Within minutes” and the “bone substance about the prosthesis (radiological)” value ([7]; Example 7: 5 μmolar solution) was “the bone substance had consolidated about the prosthesis”. The “duration of alleviation of pain” value [7, 19] was “more than one year”, the “time to alleviation of pain” value [7, 19] was 6 to 12 h and the “infection about the prosthesis” value ([7]; Example 7: 5 μmolar solution, diffusion of RTX along the shaft and about the socket) was “brought very much under control”.
